From US9629872B2, “Sodium thiosulphate for the treatment of ectopic calcifications” (Institut National de la Sante et de la Recherche Medicale …, priority 2012, dated 2017)

Key:
[1] = tested on: ossifications (ankle region and popliteal fossa area); assay: Topical treatment of a child with progressive osseous heteroplasia (Example 3); type: in vivo, human; conditions: before the topical treatment; given with non steroidal anti-inflammatory medications
Method: A child, weighing 27 kg, suffering from progressive osseous heteroplasia presented with significant ossifications that were responsible for a limitation of function in the right foot: in the ankle region, with an estimated surface area of 10 cm×5 cm, and in the popliteal fossa area with 2 patches, having an estimated surface area of 6 cm×4 cm each.
These exploratory tests were carried out in addition to the usual checkup including the exploration of renal function and liver function, as well as calcium and phosphate checkup.

dystrophic calcification = conditions: cited from earlier work
[2] = injectable solution of 0.15 g/mL with sodium phosphate dodecahydrate 1.21%, packaged in an ampoule; cited from earlier work

## CC(O)(P(=O)(O)O)P(=O)(O)O [disodium etidronate]
[1]
  improvement under earlier treatment: No improvement

## O=S([O-])([O-])=S.[Na+].[Na+] [sodium thiosulfate]
Dystrophic calcification; after six months, 10% compresses twice a week, with topical corticosteroid, acetic acid compresses and oral antibiotics
  superficial calcifications: dissolved
Dystrophic calcification; after six months, 10% compresses, combined treatment
  pains: progressively abated
Dystrophic calcification; three months later (after the first six months)
  re-epithelialisation over the wound regions: almost complete re-epithelialisation
[2]
  stability: 3 years
